Test results reported in patent publication EP0417790B1, “S-triazolo[3,4-i]purine derivatives” (Kyowa Hakko Kogyo Co., Ltd., priority 1989, dated 1991).
Where two headings read alike, the source gives them in different places.

Assays:
male dd-mice = experiment: Acute toxicity; format: in vivo; conditions: Minimum lethal dose, oral, mortality observed for seven days
Description: The compounds were orally administrated to male dd-mice weighing 20 ± 1 g. Minimum lethal dose (MLD) was determined by observing the mortality for seven days after the administration.

Wistar male rats = experiment: Diuretic activity; format: in vivo; conditions: Rattus norvegicus, po, 25 mg/kg orally, urine taken for 6 hours
Description: Wistar male rats weighing 150 to 300 g were used after fasting for 18 hours. […] The test was performed using 3 groups per test compound, and each group consists of 3 animals. The urine was metered by a measuring cylinder and electrolytes (Na^+ and K^+) in the urine were analyzed by flame photometer (model […]: Hitachi Ltd.). Parameters in Table 3 are represented by relative value for control.

trachea = experiment: Passive Schultz-Dale reaction (broncho-dilatory effect) on isolated tracheal strips; conditions: Cavia porcellus; 50% relaxation of antigen (EWA, 1 µg/ml)-contracted tracheal strips of passively sensitized guinea pigs
Description: Guinea pigs were passively sensitized as follows. Hartley male guinea pigs weighing 350 to 500 g were injected intraperitoneally with rabbit anti-egg albumin (EWA) serum prepared by the method of Koda et al. [Folia pharmacol., Japon 66, 237, (1970)]. After 24 hours, the guinea pigs were stunned and exsanguinated, and then trachea was excised. The zig-zag strips of the trachea were prepared by the method of Emmerson and Mackay [J. Pharm. Pharmacol., 31, 798, (1979)]. The strips were suspended in Krebs-Henseleit solution at 37°C under aeration of a mixed gas of 95% oxygen and 5% carbon dioxide, and incubated for one hour. Antigen (EWA) was then introduced in the solution (final concentration; 1 µg/ml), and the contraction was measured by isotonictransducer (TD-112s, made by Nihon Kohden K.K., Japan) and recorded on a recorder (Type 3066, made by Yokogawa-Hokushin Denki, K.K. Japan). After the contraction curves reached plateau the compounds were successively added in order to get cumulative concentration-relaxation curves. Concentration of 50% relaxation rate (IC50) was calculated from the regression line, which was obtained from cumulative concentration-relaxation curves.

[1] = relative value for control (1.00), read-out: Na^+/K^+
[2] = relative value for control (100), read-out: Excretion of K^+
[3] = relative value for control (100), read-out: Excretion of Na^+
[4] = relative value for control (100), read-out: Urine volume

SMILES	MLD (male dd-mice) [mg/kg]	response vs control in vivo at 25 mg/kg (Wistar male rats; [1]) [%]	response vs control in vivo at 25 mg/kg (Wistar male rats; [2]) [%]	response vs control in vivo at 25 mg/kg (Wistar male rats; [3]) [%]	response vs control in vivo at 25 mg/kg (Wistar male rats; [4]) [%]	IC50 (trachea) [µM]
CCCn1c(=O)n2c(-c3ccc(C(=O)O)cc3)nnc2c2c1ncn2C [Compound 23, 6,9-Dihydro-3-(4-carboxyphenyl)-9-methyl-6-n-propyl-5H-1,2,4-triazolo[3,4-i]purin-5-one]	>300	–	–	–	–	–
CCCn1c(=O)n2c(-c3cccs3)nnc2c2[nH]cnc21 [Compound 33, 6,9-Dihydro-6-n-propyl-3-(2-thienyl)-5H-1,2,4-triazolo[3,4-i]purin-5-one]	>300	–	–	–	–	–
CCCn1cnc2c1c1n[nH]c(=O)n1c(=O)n2CCC [Compound 44, 6,9-Di-n-propyl-2,5,6,9-tetrahydro-3H-1,2,4-triazolo[3,4-i]purin-3,5-dione]	>300	111	128	142	191	39.6
CCCn1c(=O)n2c(-c3ccc(Cl)c(Cl)c3)nnc2c2c1ncn2C [Compound 20, 3-(3,4-Dichlorophenyl)-6,9-dihydro-9-methyl-6-n-propyl-5H-1,2,4-triazolo[3,4-i]purin-5-one]	>300	–	–	–	–	–
CCn1nc2c3c(ncn3C)n(Cc3ccccc3)c(=O)n2c1=O [Compound 49, 6-Benzyl-2-ethyl-9-methyl-2,5,6,9-tetrahydro-3H-1,2,4-triazolo[3,4-i]purin-2,5-dione]	–	161	173	279	300	–
Cc1nnc2c3[nH]cnc3n(Cc3ccccc3)c(=O)n12 [Compound 37, 6-Benzyl-6,9-dihydro-3-methyl-5H-1,2,4-triazolo[3,4-i]purin-5-one]	>300	–	–	–	–	–
CCCn1c(=O)n2c(=O)n(CC)nc2c2c1ncn2C [Compound 48, 2-Ethyl-9-methyl-6-n-propyl-2,5,6,9-tetrahydro-3H-1,2,4-triazolo[3,4-i]purin-2,5-dione]	>300	–	–	–	–	–
CCCn1c(=O)n2c(-c3ccc(C)cc3)nnc2c2c1ncn2C [Compound 14, 6,9-Dihydro-9-methyl-3-(4-methylphenyl)-6-n-propyl-5H-1,2,4-triazolo[3,4-i]purin-5-one]	>300	–	–	–	–	45
CCCn1c(=O)n2c(-c3cccs3)nnc2c2c1ncn2C [Compound 2, 6,9-Dihydro-9-methyl-6-n-propyl-3-(2-thienyl)-5H-1,2,4-triazolo[3,4-i]purin-5-one]	300	–	–	–	–	0.4
CCCn1c(=O)n2c(-c3ccccc3)nnc2c2[nH]c(C3CCCC3)nc21 [Compound 26, 8-Cyclopentyl-6,9-dihydro-6-n-propyl-3-phenyl-5H-1,2,4-triazolo[3,4-i]purin-5-one]	>300	–	–	–	–	–
Cn1cnc2c1c1nnc(-c3ccccc3)n1c(=O)n2Cc1ccccc1 [Compound 28, 6-Benzyl-6,9-dihydro-9-methyl-3-phenyl-5H-1,2,4-triazolo-[3,4-i]purin-5-one]	>300	–	–	–	–	–
CCCn1c(=O)n2c(-c3ccncc3)nnc2c2c1ncn2Cc1ccccc1 [Compound 39, 9-Benzyl-6,9-dihydro-6-n-propyl-3-(4-pyridyl)-5H-1,2,4-triazolo[3,4-i]purin-5-one]	>300	127	145	184	185	–
CCCn1c(=O)n2c(-c3ccc([N+](=O)[O-])cc3)nnc2c2c1ncn2C [Compound 16, 6,9-Dihydro-9-methyl-3-(4-nitrophenyl)-6-n-propyl-5H-1,2,4-triazolo[3,4-i]purin-5-one]	>300	111	175	194	170	–
CCCn1c(=O)n2c(-c3ccc(C(=O)OC)cc3)nnc2c2c1ncn2C [Compound 22, 6,9-Dihydro-3-(4-methoxycarbonylphenyl)-9-methyl-6-n-propyl-5H-1,2,4-triazolo[3,4-i]purin-5-one]	>300	–	–	–	–	–
CCCn1c(=O)n2c(=S)[nH]nc2c2c1ncn2C [Compound 46, 9-Methyl-6-n-propyl-2,2,6,9-tetrahydro-3-thioxo-5H-1,2,4-triazolo[3,4-i]purin-5-one]	>300	–	–	–	–	–
CCCn1c(=O)n2c(-c3ccc(F)cc3)nnc2c2c1ncn2C [Compound 17, 6,9-Dihydro-3-(4-fluorophenyl)-9-methyl-6-n-propyl-5H-1,2,4-triazolo[3,4-i]purin-5-one]	>300	142	134	179	178	–
CCCn1c(=O)n2c(-c3ccc(C(F)(F)F)cc3)nnc2c2c1ncn2C [Compound 15, 6,9-Dihydro-9-methyl-6-n-propyl-3-(4-trifluoromethylphenyl)-5H-1,2,4-triazolo[3,4-i]purin-5-one]	>300	–	–	–	–	–
CCCn1c(=O)n2c(C)nnc2c2[nH]c(C3CCCC3)nc21 [Compound 27, 8-Cyclopentyl-6,9-dihydro-3-methyl-6-n-propyl-5H-1,2,4-triazolo[3,4-i]purin-5-one]	>300	–	–	–	–	–
Cn1cnc2c1c1nnc(-c3ccccc3)n1c(=O)n2-c1ccccc1 [Compound 29, 6,9-Dihydro-3,6-diphenyl-9-methyl-5H-1,2,4-triazolo[3,4-i]-purin-5-one]	>300	141	110	155	170	–
CCCn1c(=O)n2c(-c3cccnc3)nnc2c2[nH]cnc21 [Compound 32, 6,9-Dihydro-6-n-propyl-3-(3-pyridyl)-5H-1,2,4-triazolo[3,4-i]purin-5-one]	–	152	129	196	195	–
CCCn1c(=O)n2c(-c3ccccc3N)nnc2c2c1ncn2C [Compound 13, 3-(2-Aminophenyl)-6,9-dihydro-9-methyl-6-n-propyl-5H-1,2,4-triazolo[3,4-i]purin-5-one]	>300	–	–	–	–	–
CCCn1c(=O)n2c(-c3ccccc3OC)nnc2c2c1ncn2C [Compound 7, 6,9-Dihydro-3-(2-methoxyphenyl)-9-methyl-6-n-propyl-5H-1,2,4-triazolo[3,4-i]purin-5-one]	300	133	122	162	173	–
CCCn1c(=O)n2c(-c3ccc(OC)c(OC)c3)nnc2c2c1ncn2C [Compound 21, 6,9-Dihydro-3-(3,4-dimethoxyphenyl)-9-methyl-6-n-propyl-5H-1,2,4-triazolo[3,4-i]purin-5-one]	>300	–	–	–	–	–
CCCn1c(=O)n2cnnc2c2c1ncn2C [Compound 36, 6,9-Dihydro-9-methyl-6-n-propyl-5H-1,2,4-triazolo[3,4-i]purin-5-one]	300	–	–	–	–	–
Cn1cnc2c1c1n[nH]c(=O)n1c(=O)n2Cc1ccccc1 [Compound 42, 6-Benzyl-9-methyl-2,5,6,9-tetrahydro-3H-1,2,4-triazolo[3,4-i]purin-3,5-dione]	>300	–	–	–	–	–
CCCn1cnc2c1c1nnc(-c3ccncc3)n1c(=O)n2CCC [Compound 40Sa]	100	97	136	132	155	–
CCCn1c(=O)n2c(=O)[nH]nc2c2[nH]c(C3CCCC3)nc21 [Compound 43, 8-Cyclopentyl-6-n-propyl-2,5,6,9-tetrahydro-3H-1,2,4-triazolo[3,4-i]purin-3,5-dione]	>300	–	–	–	–	–
CCCn1c(=O)n2c(-c3ccc(N(C)C)cc3)nnc2c2c1ncn2C [Compound 18, 6,9-Dihydro-3-(4-dimethylaminophenyl)-9-methyl-6-n-propyl-5H-1,2,4-triazolo[3,4-i]purin-5-one]	>300	109	129	141	155	–
CCCn1c(=O)n2c(-c3cc(Cl)ccc3Cl)nnc2c2c1ncn2C [Compound 19, 3-(2,5-Dichlorophenyl)-6,9-dihydro-9-methyl-6-n-propyl-5H-1,2,4-triazolo[3,4-i]purin-5-one]	>300	–	–	–	–	–
NS(=O)(=O)c1cc(C(=O)O)c(NCc2ccco2)cc1Cl [Furosemide, reference compound]	–	105	–	–	–	–
